EPA's ToxValDB 9.5 (doi:10.2903/j.efsa.2018.5378)

Assays:
Daphnia magna = conditions: chronic/long-term; duration: 21 days; reproduction
Hypoaspis aculeifer = conditions: chronic/long-term; duration: 14 days; reproduction
Oncorhynchus mykiss = conditions: acute; duration: 96 hours; mortality
Pimephales promelas = conditions: chronic/long-term, duration: 33 days
Tagia sp. = conditions: chronic/long-term; duration: 56 days; reproduction
Apis mellifera = conditions: acute, duration: 48 hours, mortality
Cyprinus carpio = conditions: acute; duration: 96 hours; mortality
Neomysis kadiakensis = conditions: chronic/long-term; duration: 28 days; reproduction
[1] = chronic, duration: 2 years, histopathology: neoplastic

In the case of COc1c(Cl)ccc(-c2nc(C(=O)O)c(Cl)c(N)c2F)c1F [Florpyrauxifen], the NOEC (Daphnia magna) is reported as 25 mg/L, the NOEC (Hypoaspis aculeifer) is reported as 25 mg/kg and the LC50 (Oncorhynchus mykiss) is reported as greater than 100 µg/mL. It also gave an NOEC (Pimephales promelas; other) of 29.8 mg/L, an NOAEL (Rattus norvegicus; [1]) of 50 mg/kg-day and an NOEC (Tagia sp.) of 213 mg/kg.

Work on COc1c(Cl)ccc(-c2nc(C(=O)OCc3ccccc3)c(Cl)c(N)c2F)c1F [Florpyrauxifen-benzyl] yielded an LD50 (Apis mellifera; dermal) greater than 100 µg/piece, an LD50 (Apis mellifera; oral, unspecified) greater than 105 µg/piece and an LD50 (Colinus virginianus; acute, oral, mortality) greater than 2250 mg/kg-day. The NOEL (Colinus virginianus; reproduction developmental) was 87.2 mg/kg-day, the LC50 (Cyprinus carpio) was greater than 0.0414 µg/mL and the NOEC (Neomysis kadiakensis) was 0.0078 mg/L. For the same compound, the NOEC (Pimephales promelas; development) was 0.037 mg/L, the LD50 (Rattus norvegicus; acute, oral, mortality) was greater than 5000 mg/kg-day and the NOAEL (Rattus norvegicus; [1]) was 50 mg/kg-day. For the same compound, the NOAEL (Rattus norvegicus; reproduction developmental, no effects) was 300 mg/kg-day.
